Calls of active or inactive are those of the source. How the calls were made is not given here.
System: CCRIS mutagenicity, Ames/micronucleus/aberration tests
Test: CCRIS mutagenicity studies
[1] = Test System: AMES SALMONELLA TYPHIMURIUM, Strain/Indicator: TA98, Metabolic Activation: NONE, Method: STANDARD PLATE
[2] = Test System: AMES SALMONELLA TYPHIMURIUM, Strain/Indicator: TA98, Metabolic Activation: RAT, LIVER, S-9, AROCLOR 1254, Method: STANDARD PLATE
[3] = Test System: AMES SALMONELLA TYPHIMURIUM, Strain/Indicator: TA100, Metabolic Activation: NONE, Method: PREINCUBATION
[4] = Test System: AMES SALMONELLA TYPHIMURIUM, Strain/Indicator: TA100, Metabolic Activation: NONE, Method: STANDARD PLATE
[5] = Test System: AMES SALMONELLA TYPHIMURIUM, Strain/Indicator: TA100, Metabolic Activation: RAT, LIVER, S-9, AROCLOR 1254, Method: STANDARD PLATE
[6] = Test System: AMES SALMONELLA TYPHIMURIUM, Strain/Indicator: TA98, Metabolic Activation: NONE, Method: PREINCUBATION
[7] = Test System: AMES SALMONELLA TYPHIMURIUM, Strain/Indicator: TA1535, Metabolic Activation: NONE, Method: PREINCUBATION
[8] = Test System: AMES SALMONELLA TYPHIMURIUM, Strain/Indicator: TA1537, Metabolic Activation: NONE, Method: PREINCUBATION

Question: `O=C(/C=C/c1ccc([N+](=O)[O-])cc1)c1ccccc1` was tested. Which mutagenic call (Test System: AMES SALMONELLA TYPHIMURIUM, Strain/Indicator: TA98, Metabolic Activation: HAMSTER, LIVER, S-9, AROCLOR 1254, Method: STANDARD PLATE) did it give?
Answer: active; positive

Question: What about the mutagenic call [1] of the same compound?
Answer: inactive; negative

Question: What about the mutagenic call [2] of the same compound?
Answer: active; positive

Question: What about the mutagenic call (Test System: AMES SALMONELLA TYPHIMURIUM, Strain/Indicator: TA100(1,8-DNP6), Metabolic Activation: NONE, Method: PREINCUBATION) of the same compound?
Answer: inactive; negative

Question: And the mutagenic call (Test System: AMES SALMONELLA TYPHIMURIUM, Strain/Indicator: TA100(1,8-DNP6), Metabolic Activation: RAT, LIVER, S-9, AROCLOR 1254, Method: PREINCUBATION)?
Answer: inactive; negative

Question: What about the mutagenic call (Test System: AMES SALMONELLA TYPHIMURIUM, Strain/Indicator: TA100(NR), Metabolic Activation: NONE, Method: PREINCUBATION) of the same compound?
Answer: inactive; negative

Question: What about the mutagenic call (Test System: AMES SALMONELLA TYPHIMURIUM, Strain/Indicator: TA100(NR), Metabolic Activation: RAT, LIVER, S-9, AROCLOR 1254, Method: PREINCUBATION) of the same compound?
Answer: inactive; negative

Question: And the mutagenic call (Test System: AMES SALMONELLA TYPHIMURIUM, Strain/Indicator: TA100, Metabolic Activation: HAMSTER, LIVER, S-9, AROCLOR 1254, Method: STANDARD PLATE)?
Answer: active; positive

Question: What about the mutagenic call [3] of the same compound?
Answer: inactive; negative

Question: And the mutagenic call [4]?
Answer: inactive; negative

Question: And the mutagenic call [5]?
Answer: active; positive

Question: And the mutagenic call (Test System: AMES SALMONELLA TYPHIMURIUM, Strain/Indicator: TA100, Metabolic Activation: RAT, LIVER, S-9, AROCLOR, Method: PREINCUBATION)?
Answer: active; positive

Question: What about the mutagenic call (Test System: MOUSE LYMPHOMA, Strain/Indicator: L5178Y (TK+/TK-), Metabolic Activation: NONE, Method: SUSPENSION/PLATE) of the same compound?
Answer: inactive; negative. reevaluation of results: negative

Question: What about the mutagenic call (Test System: MOUSE LYMPHOMA, Strain/Indicator: L5178Y (TK+/TK-), Metabolic Activation: RAT, LIVER, S-9, AROCLOR 1254, Method: SUSPENSION/PLATE) of the same compound?
Answer: inactive; negative. reevaluation of results: negative

Question: What does the source list for `CC1(OO)c2ccccc2-c2ccccc21`?
Answer: mutagenic call [1]: active; positive; mutagenic call [2]: active; positive; mutagenic call [4]: active; positive; mutagenic call [5]: active; positive

Question: How did the mutagenic call (Test System: AMES SALMONELLA TYPHIMURIUM, Strain/Indicator: TA97, Metabolic Activation: HAMSTER, LIVER, S-9, AROCLOR 1254 (10 OR 30%), Method: PREINCUBATION) turn out when `Nc1cccc2c(=O)[nH][nH]c(=O)c12` was run?
Answer: inactive; negative

Question: And the mutagenic call (Test System: AMES SALMONELLA TYPHIMURIUM, Strain/Indicator: TA97, Metabolic Activation: NONE, Method: PREINCUBATION)?
Answer: inactive; negative

Question: And the mutagenic call (Test System: AMES SALMONELLA TYPHIMURIUM, Strain/Indicator: TA97, Metabolic Activation: RAT, LIVER, S-9, AROCLOR 1254 (10 OR 30%), Method: PREINCUBATION)?
Answer: inactive; negative

Question: And the mutagenic call (Test System: AMES SALMONELLA TYPHIMURIUM, Strain/Indicator: TA98, Metabolic Activation: HAMSTER, LIVER, S-9, AROCLOR 1254 (10 OR 30%), Method: PREINCUBATION)?
Answer: inactive; negative

Question: And the mutagenic call [6]?
Answer: inactive; negative

Question: And the mutagenic call (Test System: AMES SALMONELLA TYPHIMURIUM, Strain/Indicator: TA98, Metabolic Activation: RAT, LIVER, S-9, AROCLOR 1254 (10 OR 30%), Method: PREINCUBATION)?
Answer: inactive; negative

Question: And the mutagenic call (Test System: AMES SALMONELLA TYPHIMURIUM, Strain/Indicator: TA100, Metabolic Activation: HAMSTER, LIVER, S-9, AROCLOR 1254 (10 OR 30%), Method: PREINCUBATION)?
Answer: inactive; negative

Question: What about the mutagenic call [3] of the same compound?
Answer: inactive; negative

Question: What about the mutagenic call (Test System: AMES SALMONELLA TYPHIMURIUM, Strain/Indicator: TA100, Metabolic Activation: RAT, LIVER, S-9, AROCLOR 1254 (10 OR 30%), Method: PREINCUBATION) of the same compound?
Answer: inactive; negative

Question: And the mutagenic call (Test System: AMES SALMONELLA TYPHIMURIUM, Strain/Indicator: TA1535, Metabolic Activation: HAMSTER, LIVER, S-9, AROCLOR 1254 (10 OR 30%), Method: PREINCUBATION)?
Answer: inactive; negative

Question: And the mutagenic call [7]?
Answer: inactive; negative

Question: What about the mutagenic call (Test System: AMES SALMONELLA TYPHIMURIUM, Strain/Indicator: TA1535, Metabolic Activation: RAT, LIVER, S-9, AROCLOR 1254 (10 OR 30%), Method: PREINCUBATION) of the same compound?
Answer: inactive; negative

Question: What about the mutagenic call (Test System: AMES SALMONELLA TYPHIMURIUM, Strain/Indicator: TA1537, Metabolic Activation: HAMSTER, LIVER, S-9, AROCLOR 1254 (10 OR 30%), Method: PREINCUBATION) of the same compound?
Answer: inactive; negative

Question: What about the mutagenic call [8] of the same compound?
Answer: inactive; negative

Question: And the mutagenic call (Test System: AMES SALMONELLA TYPHIMURIUM, Strain/Indicator: TA1537, Metabolic Activation: RAT, LIVER, S-9, AROCLOR 1254 (10 OR 30%), Method: PREINCUBATION)?
Answer: inactive; negative

Question: For `Cc1cc(C)c2c3c(cc4ccccc42)-c2ccccc2-c13`, which mutagenic call (Test System: AMES SALMONELLA TYPHIMURIUM, Strain/Indicator: TA100, Metabolic Activation: RAT, LIVER, S-9, AROCLOR 1254) is on record?
Answer: active; positive

Question: For `Nc1cc(S(=O)(=O)[O-])cc2c1C(=O)/C(=N\Nc1ccc(-c3ccc(N/N=C4\C(=O)c5c(N)cc(S(=O)(=O)[O-])cc5C=C4S(=O)(=O)[O-])c(O)c3)cc1O)C(S(=O)(=O)[O-])=C2.[Cu].[Cu].[Na+].[Na+].[Na+].[Na+]`, which mutagenic call (Test System: AMES SALMONELLA TYPHIMURIUM, Strain/Indicator: TA98, Metabolic Activation: HAMSTER, LIVER, S-9, AROCLOR 1254 (10%), Method: PREINCUBATION) is on record?
Answer: inactive; negative

Question: What about the mutagenic call [6] of the same compound?
Answer: inactive; negative

Question: And the mutagenic call (Test System: AMES SALMONELLA TYPHIMURIUM, Strain/Indicator: TA98, Metabolic Activation: RAT, LIVER, S-9, AROCLOR 1254 (10%), Method: PREINCUBATION)?
Answer: inactive; negative

Question: What about the mutagenic call (Test System: AMES SALMONELLA TYPHIMURIUM, Strain/Indicator: TA100, Metabolic Activation: HAMSTER, LIVER, S-9, AROCLOR 1254 (10%), Method: PREINCUBATION) of the same compound?
Answer: inactive; negative

Question: What about the mutagenic call [3] of the same compound?
Answer: inactive; negative

Question: What about the mutagenic call (Test System: AMES SALMONELLA TYPHIMURIUM, Strain/Indicator: TA100, Metabolic Activation: RAT, LIVER, S-9, AROCLOR 1254 (10%), Method: PREINCUBATION) of the same compound?
Answer: inactive; negative

Question: What about the mutagenic call (Test System: AMES SALMONELLA TYPHIMURIUM, Strain/Indicator: TA1535, Metabolic Activation: HAMSTER, LIVER, S-9, AROCLOR 1254 (10%), Method: PREINCUBATION) of the same compound?
Answer: inactive; negative

Question: And the mutagenic call [7]?
Answer: inactive; negative

Question: What about the mutagenic call (Test System: AMES SALMONELLA TYPHIMURIUM, Strain/Indicator: TA1535, Metabolic Activation: RAT, LIVER, S-9, AROCLOR 1254 (10%), Method: PREINCUBATION) of the same compound?
Answer: inactive; negative

Question: And the mutagenic call (Test System: AMES SALMONELLA TYPHIMURIUM, Strain/Indicator: TA1537, Metabolic Activation: HAMSTER, LIVER, S-9, AROCLOR 1254 (10%), Method: PREINCUBATION)?
Answer: inactive; negative

Question: And the mutagenic call [8]?
Answer: inactive; negative

Question: What about the mutagenic call (Test System: AMES SALMONELLA TYPHIMURIUM, Strain/Indicator: TA1537, Metabolic Activation: RAT, LIVER, S-9, AROCLOR 1254 (10%), Method: PREINCUBATION) of the same compound?
Answer: inactive; negative

Question: What about the mutagenic call (Test System: AMES SALMONELLA TYPHIMURIUM, Strain/Indicator: TA1538, Metabolic Activation: RAT, LIVER, S-9, AROCLOR 1254, Method: STANDARD PLATE) of the same compound?
Answer: inactive; negative
